Marks after values point to notes of the source that are not given here. Residues, ends and D or L forms follow the SMILES beside them.
Assays:
[1] = test system: type IV collagen output by normal human neonatal dermal fibroblasts; assay: Type IV collagen output, ELISA of conditioned medium; assay type: cell-based; conditions: for effect on type IV collagen (in words): tested range
Protocol: (§1) Test materials. Test materials (Table 2) were stored at +4° C. and were diluted in distilled sterile water immediately before testing. Cells & experimental procedures. Normal dermal human neonatal dermal fibroblasts (ScienCell; […] The next day (Day 1), test materials, reference substances [MAP (100 μg/ml), MAP (50 μg/ml) and niacinamide (400 μg/ml, 250 μg/ml and 80 μg/ml, based on PMC7950568 and PMC8622652)] and negative control (H2O) were added, and cell culture was pursued for three additional days, afterward the cell culture conditioned medium was used for type I & IV collagen quantification, while cells were formalin-fixed and type III collagen was measured by direct ELISA. The effect of the test articles on cell numbers was determined using the sulforhodamine B method (Table 3). MAP: magnesium ascorbyl phosphate. All colorimetric measurements were acquired using multi-mode SpectraMax i3x platform (Molecular Devices, San Jose CA) assisted with SoftMax 7.0.3. PRO. 21 software. […] [table]

[2] = test system: type III collagen output by normal human neonatal dermal fibroblasts; assay: Type III collagen, direct ELISA on formalin-fixed cells; assay type: cell-based; conditions: for effect on type III collagen (in words): tested range
Protocol: as §1

[3] = test system: type I collagen output by normal human neonatal dermal fibroblasts; assay: Type I collagen output, sandwich ELISA of conditioned medium; assay type: cell-based; conditions: for effect on type I collagen (in words): tested range
Protocol: as §1

[4] = test system: normal human neonatal dermal fibroblasts; assay: Cell numbers, sulforhodamine B method; assay type: cell-based
Protocol: as §1

[5] = target: T1, elastase (Sus scrofa, UniProt P00772); assay: Elastase activity assay; assay type: biochemical, human
T1 construct: purchased Promega V1891
T1 sequence (P00772 27-266): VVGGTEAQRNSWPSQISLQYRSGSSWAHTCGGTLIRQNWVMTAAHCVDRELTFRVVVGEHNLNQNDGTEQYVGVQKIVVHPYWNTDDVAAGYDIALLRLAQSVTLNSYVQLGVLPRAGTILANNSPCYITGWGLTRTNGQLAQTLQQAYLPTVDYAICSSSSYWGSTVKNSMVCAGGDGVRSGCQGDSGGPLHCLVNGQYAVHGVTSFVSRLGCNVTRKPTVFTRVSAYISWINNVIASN
Protocol: (§2) Test Materials. Test materials (Table 8) were stored at +4° C. and were diluted in distilled sterile water immediately before testing. All experimental conditions were tested in biological triplicates.
Elastase activity assay. The reaction was initiated by adding 10 μl of 20 μg/ml elastase enzyme (Promega, cat. #V1891, lot #409147) to the assay mixture [10 mM Tris-HCl pH 7.5+/−0.5, 1 mg/ml elastase substrate VIII (Suc-Ala-Ala-Ala-pNA)] containing different experimental conditions, and the reaction kinetics were monitored at room temperature by measuring absorbance at 405 nm in the SpectraMax i3x microplate reader. Sterile distilled water was the negative, and EI III (Calbiochem cat. #324745) was the positive control. […]. Colorimetric readings were adjusted by subtracting the absorbance in wells containing the same experimental conditions but without elastase and were expressed as % of water control.
(§3) Statistical analysis. Statistical significance threshold was established as minimum 20% modulation and p value <0.05 as determined by two-tailed Student test.

[6] = test system: Clostridium collagenase IV (a generic metalloproteinase); assay: Metalloproteinase (collagenase) activity assay, Enzchek kit, quenched fluorescent gelatin; assay type: biochemical
Protocol: as §2
Metalloproteinase activity assay. The activity of the test materials towards collagenase proteolytic activity was examined by adding dilutions of test articles to the Enzchek kit reaction mixture (Molecular Probes/Invitrogen/ThermoFisher). Clostridium collagenase IV (a generic metalloproteinase) was used as the protease and quenched fluorescent gelatin was the substrate. Phenanthroline, a potent collagenase inhibitor was used as positive control at 1000 μM. The kinetics of the release of the digested, fluorescent gelatin were measured at excitation/emission wavelengths of 485/530 nm with the SpectraMax i3x microplate reader. Fluorescence readings were adjusted by subtracting the values in wells containing no collagenase and were expressed in arbitrary fluorescence units and as % of water-treated controls.
as §3

In the case of `O=C1O[C@H]([C@@H](O)CO)C([O-])=C1OP(=O)([O-])[O-].O=C1O[C@H]([C@@H](O)CO)C([O-])=C1OP(=O)([O-])[O-].[Mg+2].[Mg+2].[Mg+2]` [MAP, magnesium ascorbyl phosphate], the “Type IV collagen (% Control)” value ([1]; 50 ug/mL) is reported as 694 % Control, the “Type IV collagen (% Control)” value ([1]; 100 ug/mL) is reported as 703 % Control and the “effect on type IV collagen (in words)” value [1] is reported as “strong stimulatory response”. For the same compound, the “Type III collagen (% Control)” value ([2]; 50 ug/mL) was 1977 % Control, the “Type III collagen (% Control)” value ([2]; 100 ug/mL) was 1874 % Control and the “effect on type III collagen (in words)” value [2] was “strong stimulatory response”. For the same compound, the “Type I collagen (% Control)” value ([3]; 50 ug/mL) was 148 % Control, the “Type I collagen (% Control)” value ([3]; 100 ug/mL) was 166 % Control and the “effect on type I collagen (in words)” value [3] was “strong stimulatory response”. The “Cell Numbers (% Control)” value ([4]; 50 ug/mL) was 130 % Control and the “Cell Numbers (% Control)” value ([4]; 100 ug/mL) was 139 % Control.

With `NC(=O)c1cccnc1` [niacinamide] the “Type IV collagen (% Control)” value ([1]; 80 ug/mL) was 88 % Control, the “Type IV collagen (% Control)” value ([1]; 250 ug/mL) was 86 % Control and the “Type IV collagen (% Control)” value ([1]; 400 ug/mL) was 104 % Control. The “effect on type IV collagen (in words)” value [1] was “no effect”, the “Type III collagen (% Control)” value ([2]; 80 ug/mL) was 106 % Control and the “Type III collagen (% Control)” value ([2]; 250 ug/mL) was 106 % Control. The “Type III collagen (% Control)” value ([2]; 400 ug/mL) was 111 % Control, the “effect on type III collagen (in words)” value [2] was “no effect” and the “Type I collagen (% Control)” value ([3]; 80 ug/mL) was 94 % Control. For the same compound, the “Type I collagen (% Control)” value ([3]; 250 ug/mL) was 130 % Control, the “Type I collagen (% Control)” value ([3]; 400 ug/mL) was 130 % Control and the “type I collagen increase / upregulation (description summary)” value ([3]; concentration not given) was “up to 130%”. The “effect on type I collagen (in words)” value [3] was “upregulated type I collagen at the two highest tested concentrations”, the “Cell Numbers (% Control)” value ([4]; 80 ug/mL) was 99 % Control and the “Cell Numbers (% Control)” value ([4]; 250 ug/mL) was 99 % Control. For the same compound, the “Cell Numbers (% Control)” value ([4]; 400 ug/mL) was 96 % Control.

In the case of `COC(=O)CCC(=O)N[C@@H](C)C(=O)N[C@@H](C)C(=O)N1CCC[C@H]1C(=O)N[C@H](C(=O)CCl)C(C)C` [El III] (HELM PEPTIDE1{[COC(=O)CCC(=O)[*:2]].A.A.P.V.[ClC[*:1]]}$$$$V2.0), the “Elastase activity (% Control)” value ([5]; 1 ug/mL, t = 20 min) is reported as 9*** % Control and the “suppressive effect on elastase activity (in words)” value ([5]; tested range) is reported as “nearly complete inhibitory activity”.

With `c1cnc2c(c1)ccc1cccnc12` [Phenanthroline] the “MP activity (% CTR)” value ([6]; positive control at 1000 μM, t = 20 min) was 0* % CTR and the “inhibitory effect on collagenase (MP) / generic metalloproteinase activity (in words)” value ([6]; tested range) was “total inhibitory activity”.

From patent US20250177285A1, “BANANA STEM SAP COMPOSITIONS AND METHODS OF USE THEREOF” (Tano Pharmaceuticals Inc., priority 2023, published 2025)
